Experimental data reported in ChEMBL document CHEMBL1201862, “PubChem BioAssay data set” (2004).
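Protocol summary: plate cells (96-well), add compound at 5 concentrations, incubate 48 h, interpolate endpoints linearly. Here, GI50 denotes the concentration required for 50% inhibition of growth.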 Calls of active or inactive are those of the source. Cut-off read from the data, not from the text of the source: active = GI50 up to about 1.1 µM and inactive = higher.

Columns and labels:
Test in all cases: NCI anticancer screen, dose series, 48 h
IGROV-1 = system: IGROV-1
MDA-MB-435 = system: MDA-MB-435
SK-MEL-5 = system: SK-MEL-5
NCI-H23 = system: NCI-H23
OVCAR-3 = system: OVCAR-3
T47D = system: T47D
HOP-92 = system: HOP-92
Hs-578T = system: Hs-578T
EKVX = system: EKVX
PC-3 = system: PC-3
HOP-62 = system: HOP-62
SW-620 = system: SW-620
BT-549 = system: BT-549
SNB-75 = system: SNB-75
M14 = system: M14
ACHN = system: ACHN
UACC-257 = system: UACC-257
786-0 = system: 786-0
HCT-116 = system: HCT-116
TK-10 = system: TK-10

Structure (SMILES)	GI50 (IGROV-1)	GI50 (MDA-MB-435)	GI50 (SK-MEL-5)	GI50 (NCI-H23)	GI50 (OVCAR-3)	GI50 (T47D)	GI50 (HOP-92)	GI50 (Hs-578T)	GI50 (EKVX)	GI50 (PC-3)	GI50 (HOP-62)	GI50 (SW-620)	GI50 (BT-549)	GI50 (SNB-75)	GI50 (M14)	GI50 (ACHN)	GI50 (UACC-257)	GI50 (786-0)	GI50 (HCT-116)	GI50 (TK-10)
CCCC1C(=O)Nc2cccc3ncn(c23)C1=O (stereo not drawn)	> 100 µM (inactive)	> 100 µM (inactive)	> 100 µM (inactive)	> 100 µM (inactive)	> 100 µM (inactive)	> 100 µM (inactive)	> 100 µM (inactive)	> 100 µM (inactive)	> 100 µM (inactive)	> 100 µM (inactive)	> 100 µM (inactive)	> 100 µM (inactive)	> 100 µM (inactive)	28.8 µM (inactive)	> 100 µM (inactive)	> 100 µM (inactive)	> 100 µM (inactive)	> 100 µM (inactive)	> 100 µM (inactive)	–
CC(C)OC1OC(CO)C(O)CC1n1cc(F)c(=O)[nH]c1=O (stereo not drawn)	> 100 µM (inactive)	> 100 µM (inactive)	> 100 µM (inactive)	> 100 µM (inactive)	> 100 µM (inactive)	48.4 µM (inactive)	> 100 µM (inactive)	86.3 µM (inactive)	> 100 µM (inactive)	> 100 µM (inactive)	–	30.9 µM (inactive)	> 100 µM (inactive)	> 100 µM (inactive)	> 100 µM (inactive)	> 100 µM (inactive)	> 100 µM (inactive)	> 100 µM (inactive)	> 100 µM (inactive)	> 100 µM (inactive)
O=C1C=C(NCCc2ccc(O)cc2)C(=O)C=C1NCCc1ccc(O)cc1	> 100 µM (inactive)	49.1 µM (inactive)	> 100 µM (inactive)	> 100 µM (inactive)	> 100 µM (inactive)	> 100 µM (inactive)	71.1 µM (inactive)	85.3 µM (inactive)	> 100 µM (inactive)	> 100 µM (inactive)	64 µM (inactive)	> 100 µM (inactive)	> 100 µM (inactive)	19.6 µM (inactive)	–	> 100 µM (inactive)	> 100 µM (inactive)	> 100 µM (inactive)	50 µM (inactive)	> 100 µM (inactive)
CCOC(=O)c1c(NS(=O)(=O)c2ccc(Br)cc2)sc2c1CCCC2	4.21 µM (inactive)	19.4 µM (inactive)	7.29 µM (inactive)	6.34 µM (inactive)	3.93 µM (inactive)	6.61 µM (inactive)	–	4.43 µM (inactive)	4.52 µM (inactive)	5.41 µM (inactive)	5.9 µM (inactive)	16.5 µM (inactive)	7.59 µM (inactive)	4.11 µM (inactive)	4.8 µM (inactive)	3.93 µM (inactive)	9.23 µM (inactive)	9.31 µM (inactive)	7.52 µM (inactive)	10.8 µM (inactive)
Nc1ccc(Oc2ccc(C34CC5CC(C3)CC(c3ccc(Oc6ccc(N)c(O)c6)cc3)(C5)C4)cc2)cc1O	1.5 µM (inactive)	1.89 µM (inactive)	1.61 µM (inactive)	1.79 µM (inactive)	2.03 µM (inactive)	1.76 µM (inactive)	1.98 µM (inactive)	2.02 µM (inactive)	1.72 µM (inactive)	1.75 µM (inactive)	3.47 µM (inactive)	2.89 µM (inactive)	0.993 µM (active)	–	1.63 µM (inactive)	1.72 µM (inactive)	1.97 µM (inactive)	4.36 µM (inactive)	1.39 µM (inactive)	3.3 µM (inactive)
Cc1nc(O)nc2nc3ccc(Cl)cc3c(NCCNCCO)c12	12.3 µM (inactive)	13 µM (inactive)	12.3 µM (inactive)	8.77 µM (inactive)	12.5 µM (inactive)	10.3 µM (inactive)	11.4 µM (inactive)	13.5 µM (inactive)	11.4 µM (inactive)	13.7 µM (inactive)	8.05 µM (inactive)	6.87 µM (inactive)	16.7 µM (inactive)	–	12.1 µM (inactive)	14.3 µM (inactive)	12.4 µM (inactive)	8.75 µM (inactive)	5.85 µM (inactive)	18.7 µM (inactive)
CCCCCCCCCCCCCCCCOc1ccc(/C=C/C2=[N+](CCCl)CCO2)cc1	61.2 µM (inactive)	> 100 µM (inactive)	> 100 µM (inactive)	–	> 100 µM (inactive)	> 100 µM (inactive)	> 100 µM (inactive)	> 100 µM (inactive)	> 100 µM (inactive)	> 100 µM (inactive)	87.3 µM (inactive)	> 100 µM (inactive)	> 100 µM (inactive)	> 100 µM (inactive)	> 100 µM (inactive)	> 100 µM (inactive)	> 100 µM (inactive)	30.8 µM (inactive)	25.5 µM (inactive)	47.1 µM (inactive)
